# What was measured:
# [1] = test system: A549GR (anticancer resistant) cells; assay: MTT assay in A549GR cells; type: cell-based, human; settings: various concentrations, 72 hours, FIG. 11
# Procedure: (§1) Human lung cancer cells A549 and A549GR were treated with PN-NF27, PN-NF28, PN-NF30, PN-NF38, and PN-NF41, respectively, and then the MTT assay results were shown. Specifically, A549 and A549GR (anticancer resistant) cells incubated for 24 hours in a 96 well plate were treated with various concentrations of compounds for 72 hours, respectively, and then added with 10 μl of 3-(4,5-dimethylthiazole-2-yl)-2,5-diphenyltetrazolium bromide (MTT) and after 2 hours, the absorbance was measured at 550 nm.
# NF1-GRD1 protein [2] = assay: Nano-Glo HiBiT lytic assay of NF1-GRD1 protein in stable 293T cells; type: cell-based, human; settings: FIG. 9; for treatment time at which the maximum effect was shown: 6 hours and 24 hours tested
# Procedure: The cells were treated in the same manner as in Experimental Example 1 except that the treatment time was 6 hours and 24 hours, respectively, and the results of measuring the activity in each case were illustrated in FIG. 9.
# The cells were treated in the same manner as in Experimental Example 1, except that the treatment time was 6 hours and 24 hours, respectively, and the concentration of PN-NF27 was 0 μM, 0.25 μM, 0.5 μM, 1.0 μM, and 5.0 μM, and the results of measuring the activity in each case were illustrated in FIG. 8.
# [3] = test system: skin cells NF-09, NF-21, and NF-11 of NF1 patients; assay: MTT assay in skin cells of NF1 patients; type: cell-based, human
# Procedure: The cell proliferation inhibitory effect of PN-NF27 was confirmed by an MTT method using skin cells NF-09, NF-21, and NF-11 of NF1 patients. […]
# The cell proliferation inhibitory effect of PN-NF38 was confirmed using skin cells NF-09, NF-21, and NF-11 of NF1 patients. Specifically, skin fibroblasts (passage>8) incubated for 48 hours were treated with PN-NF38 at 0, 0.1, 1, 2.5, 5, and 10 μM for 24 hours, and then added with 3-(4,5-dimethylthiazol-2-yl)-2,5-diphenyltetrazolium bromide (MTT) and reacted for 1 hours, and then the absorbance was measured at 550 nm.
# The cell proliferation inhibitory effect of PN-NF41 was confirmed using skin cells NF-09, NF-21, and NF-11 of NF1 patients. Specifically, skin fibroblasts (passage>8) incubated for 24 hours were treated with 5 μM of PN-NF41 for 72 hours, and then added with 3-(4,5-dimethylthiazol-2-yl)-2,5-diphenyltetrazolium bromide (MTT) and reacted for 1 hours, and then the absorbance was measured at 550 nm.
# [4] = test system: human lung cancer cells A549; assay: MTT assay in A549 cells; type: cell-based; settings: A549, various concentrations, 72 hours, FIG. 11
# Procedure: as §1
# NF1 protein [5] = assay: Western blot of NF1 protein in A549 cells; type: cell-based, human; settings: 5 μM, 6 hours, FIG. 10
# Procedure: (§2) The effect of increasing NF1 protein in human renal epithelial-like cells (293T), human lung cancer cells (A549), and mouse embryonic fibroblasts (MEF) was analyzed using Western blot. Specifically, the cells incubated in a 10% FBS+DMEM culture medium for 48 hours were treated with 5 μM each of compounds for 6 hours, and then the quantified protein samples were subjected to electrophoresis. After electrophoresis, the proteins in the gel were transferred to a PVDF membrane and then Western blot was performed using NF1 antibody (Abcam, Cat#ab128054).
# NF1-GRD1 protein [6] = assay: Nano-Glo HiBiT lytic assay of NF1-GRD1 protein in stable 293T cells; type: cell-based, human; settings: for effect of increasing NF1 protein, times higher than control group: 293T cells stably expressing NF1-GRD1, treated 24 hours, luciferase activity vs DMSO-treated control, FIG. 8; for concentration showing the highest activity: 0-5.0 μM tested
# NF1 protein [7] = assay: Western blot of NF1 protein in mouse embryonic fibroblasts (MEF); type: cell-based; settings: for NF1 protein increasing effect (Western blot): MEF cells, 6 hours, compared to other substances, FIG. 10; for NF1 protein quantification (Western blot) vs control group: MEF
# Procedure: as §2
# In addition, the effect of increasing NF1 protein in mouse embryonic fibroblasts (MEF) was analyzed using Western blot. A specific method was as described in Experimental Example 3.
# The effect of increasing NF1 protein in mouse embryonic fibroblasts (MEF) was analyzed using Western blot. A specific method was as described in Experimental Example 3.
# NF1 protein [8] = assay: Western blot of NF1 protein in skin cells of NF1 patients; type: cell-based, human; settings: 1 μM; normal cells and NF-09, NF-21, NF-11 cells, FIG. 13
# Procedure: as §2
# The effect of increasing NF1 protein in skin cells NF-09, NF-21, and NF-11 of NF1 patients was analyzed using Western blot. A specific method was as described in Experimental Example 3.
# NF1 protein [9] = assay: Western blot of NF1 protein in 293T cells; type: cell-based, human; settings: 5 μM, 6 hours, FIG. 10
# Procedure: as §2
# [10] = test system: HCT-8, HCT-15, HCT-116, PANC1, and PC3 cells; assay: MTT assay in colon, pancreatic and prostate cancer cells; type: cell-based, human; settings: 0, 0.1, 0.5, 1, 5, 10 μM, 72 hours, FIG. 17
# Procedure: The cell proliferation inhibitory effect of PN-NF30 was confirmed using human colon cancer cells HCT-8, HCT-15, and HCT-116, human pancreatic cancer cells PANC1, and human prostate cancer cells PC3. Specifically, the HCT-8, HCT-15, HCT-116, PANC1, and PC3 cells incubated for 24 hours in a 96 well plate were treated with compounds at concentrations of 0, 0.1, 0.5, 1, 5, and 10 μM for 72 hours, respectively, and then added with 10 μl of 3-(4,5-dimethylthiazole-2-yl)-2,5-diphenyltetrazolium bromide (MTT) and after 1 hours, the absorbance was measured at 550 nm.
SMILES,cell proliferation (MTT) [1],treatment time at which the maximum effect was shown (NF1-GRD1 protein [2]) [h],maximum effect compared to the control group (NF1-GRD1 protein [2]; treatment time 24 hours) [fold],"cell proliferation (MTT), concentration dependence ([3]; 0, 0.1, 1, 2.5, 5, 10 μM, 24 hours, FIG. 19)","cell viability (MTT) ([3]; 10 μM, 24 hours, FIG. 19)",cell proliferation (MTT) [4],NF1 protein increasing effect (Western blot) (NF1 protein [5]),"effect of increasing NF1 protein, times higher than control group (NF1-GRD1 protein [6])",NF1 protein increasing effect (Western blot) (NF1 protein [7]; 5 μM),"NF1 protein quantification (Western blot) vs control group (NF1 protein [7]; 2 μM, FIG. 18)",maximum effect compared to the control group (NF1-GRD1 protein [2]; treatment time 6 hours) [fold],"cell proliferation (MTT) treated vs not treated ([3]; 1 μM (result text), 72 hours, normal cells and NF-09, NF-21, NF-11 cells, FIG. 15)",NF1 protein (Western blot) treated vs not treated (NF1 protein [8]),NF1 protein increasing effect (Western blot) (NF1 protein [9]),"activity compared with the case not treated (0 μM) (NF1-GRD1 protein [6]; PN-NF27 at 0.25, 0.5, 1.0, 5.0 μM, 6 hours and 24 hours, FIG. 12)","concentration showing the highest activity (NF1-GRD1 protein [6]; incubated for 24 hours, FIG. 12) [µM]","concentration showing the highest activity (NF1-GRD1 protein [6]; treated for 6 hours, FIG. 12) [µM]","NF1 protein quantification (Western blot) vs control group (NF1 protein [7]; 1 μM, FIG. 14)","NF1 protein quantification (Western blot) vs control group (NF1 protein [7]; 5 μM, FIG. 16)","cell proliferation (MTT), concentration dependence [10]"
"C=C(NC(=O)C(=C)NC(=O)c1csc(C2=N[C@@H]3c4csc(n4)[C@H]4NC(=O)c5csc(n5)[C@H]([C@](C)(O)[C@@H](C)O)NC(=O)[C@H]5CSC(=N5)/C(=C/C)NC(=O)[C@H]([C@@H](C)O)NC(=O)c5csc(n5)[C@]3(CC2)NC(=O)[C@H](C)NC(=O)C(=C)NC(=O)[C@H](C)NC(=O)[C@H]([C@@H](C)CC)N[C@@H]2C=Cc3c([C@H](C)O)cc(nc3[C@H]2O)C(=O)O[C@@H]4C)n1)C(N)=O [PN-NF38, Thiostrepton]",effectively inhibited,24,11,tended to be effectively inhibited as the concentration of PN-NF38 cells increased,less than 0.3,effectively inhibited,superior to other substances,about 20 times,superior to other substances,tended to increase,,,,,,,,,,
"C/C=C(/C)C(=O)O[C@H]1C(C)=C[C@]23C(=O)[C@@H](C=C(COC(C)=O)[C@@H](O)[C@]12O)[C@H]1[C@@H](C[C@H]3C)C1(C)C [PN-NF27, 20-O-acetylingenol-3-angelate]",effectively inhibited,≤ 6,,,,effectively inhibited,superior to other substances,about 6 times,superior to other substances,,24,tended to be inhibited,tended to increase,excellent,higher activity,0.5,5.0,tended to increase,,
"CN1CCc2cccc3c2[C@H]1Cc1ccc(O)c(O)c1-3.CN1CCc2cccc3c2[C@H]1Cc1ccc(O)c(O)c1-3.Cl.Cl.O [PN-NF30, R(−) Apomorphine hydrochloride hemihydrate, reference compound]",effectively inhibited,,,,,effectively inhibited,superior to other substances,about 2 times,,,,,,,,,,,tended to increase,tended to effectively inhibit cell proliferation as the concentration increased

# Reference: patent US20240374677A1, “VARIOUS COMPOUNDS FOR THE TREATMENT OF NEUROFIBROMATOSIS TYPE 1” (PUSAN NATIONAL UNIVERSITY INDUSTRY-UNIVERSITY COOPERATION …, priority 2023, published 2024)
